“Also recorded” adds a separate entry of the source.
Test system: patients with myofascial pain / fibromyalgia
Test: Patient case histories: fibromyalgia / myofascial pain syndrome
Type: in vivo, human
Settings: donepizil 5 mg daily
Text: The present invention provides a method for treating fibromyalgia and myofascial pain syndrome by increasing tissue levels of acetylcholine. Acetylcholine is the neurotransmitter of the parasympathic nervous system. The inventive method increases the relative amount of parasympathetic transmission and thereby facilitates resolution of the pain areas and diminishes the need for narcotics and polypharmacy. The reduction in the use of narcotics, NSAIDs, and tricyclic antidepressants and other medications used for pain having their deleterious side effects is a major benefit. By administration of acetyl cholinesterase inhibitor, the relative concentrations of acetylcholine are increased and available to propagate the impulses of the parasympathic nervous systems and within the non-neuronal acetylcholine receptors diminishing pain and spasms. […] The influence of non-neuronal acetylcholine receptors affected by enhanced levels of acetylcholine produces a reduction in pro-inflammatory mediators and increased blood flow to the nerve fibers involved in pain transmission. The net effect is a reduction in inflammation and improved blood flow to the vasovasorum of the affected nerves reducing the painful sensations.

With `COc1cc2c(cc1OC)C(=O)C(CC1CCN(Cc3ccccc3)CC1)C2` (centres unmarked) [donepizil, 1-benzyl-4->(5,6-dimethoxy-1-indanon)-2-yl methylpiperidine] the “clinical outcome (pain, narcotic use)” value was “able to eliminate their use of long acting; also recorded: decreased pain complaints in their neck; also recorded: controlled without the use of narcotics or NSAID's; also recorded: improvement in their back pain complaints; also recorded: pain complaints were significantly reduced over a four-week period; also recorded: no recurrence of their back pain or leg cramps; also recorded: no recurrence of cramps” and the side effects was “no reported GI upset or diarrhea; also recorded: well tolerated; also recorded: no nausea or diarrhea”.

Source: patent publication US20060183733A1, “Treating microvasculature diseases with acetyl cholinesterase inhibitors” (priority 2005, published 2006)
